Source: patent US10231453B2, “5-substituted imidazole derivatives” (BAYER CROPSCIENCE AKTIENGESELLSCHAFT, priority 2015, dated 2019)

Test system: Uromyces appendiculatus
Test: In vivo preventive test on Uromyces appendiculatus (bean rust), Examples G and R7
Conditions: 264 h, 500 ppm of active ingredient, bean, preventive spray, evaluated 11 days after inoculation, read-out: efficacy

Row | Structure (SMILES) | pest or weed control at 500 ppm [%]
1 | O=Cc1cncn1CC(O)(Cc1ccccc1Cl)C1(Cl)CC1 (centres unmarked) [Example I-12] | 90 to 100
2 | COC(Cc1ccc(Cl)cc1F)(Cn1cncc1C#N)C1CC1 (centres unmarked) [Example I-121] | 90 to 100
3 | Cc1cccc(CC(O)(Cn2cncc2C#N)C2(Cl)CC2)c1 (centres unmarked) [Example I-59] | 90 to 100
4 | N#Cc1cncn1CC(O)(Cc1cc(Cl)ncc1Cl)C1(Cl)CC1 (centres unmarked) [Example I-56] | 90 to 100
5 | OC(Cc1cccnc1Cl)(Cn1cncc1Cl)C1(Cl)CC1 (centres unmarked) [Example I-07] | 90 to 100
6 | Cc1ccc(CC(O)(Cn2cncc2C#N)C2(Cl)CC2)c(C)c1 (centres unmarked) [Example I-51] | 80 to 89
7 | N#CCc1cncn1CC(O)(Cc1ccccc1Cl)C1(Cl)CC1 (centres unmarked) [Example I-21] | 70 to 79
8 | N#Cc1cncn1CC(O)(Cc1ccc(Cl)cc1F)CC1CC1 (centres unmarked) [Example I-120] | 90 to 100
9 | N#Cc1cncn1CC(O)(Cc1ccccc1F)C1CCC1 (centres unmarked) [Example I-137] | 90 to 100
10 | N#Cc1cncn1CC(O)(Cc1cccc(F)c1F)C1CCC1 (centres unmarked) [Example I-148] | 90 to 100
11 | CC(C)C(O)(Cc1ccc(F)cc1F)Cn1cncc1C#N (centres unmarked) [Example I-128] | 90 to 100
12 | N#Cc1cncn1CC(O)(Cc1cccc(F)c1F)CC1CC1 (centres unmarked) [Example I-151] | 90 to 100
13 | N#Cc1cncn1CC(O)(Cc1ccccc1I)C1(Cl)CC1 (centres unmarked) [Example I-166] | 90 to 100
14 | N#Cc1cncn1CC(O)(Cc1ccnc(Br)c1Br)C1(Cl)CC1 (centres unmarked) [Example I-48] | 90 to 100
15 | OC(Cc1ccccc1C(F)(F)F)(Cn1cncc1Cl)C1(Cl)CC1 (centres unmarked) [Example I-89] | 90 to 100

Test system: Puccinia recondita
Test: In vivo preventive test on Puccinia recondita (brown rust on wheat), Examples C and R3
Conditions: Puccinia recondita, 264 h; 500 ppm of active ingredient; wheat, preventive spray, evaluated 11 days after inoculation; read-out: efficacy

Row | Structure (SMILES) | pest or weed control at 500 ppm [%]
16 | O=Cc1cncn1CC(O)(Cc1ccccc1Cl)C1(Cl)CC1 (centres unmarked) [Example I-12] | 80 to 89
17 | COC(Cc1ccc(Cl)cc1F)(Cn1cncc1C#N)C1CC1 (centres unmarked) [Example I-121] | 80 to 89
18 | Cc1cccc(CC(O)(Cn2cncc2C#N)C2(Cl)CC2)c1 (centres unmarked) [Example I-59] | 80 to 89
19 | N#Cc1cncn1CC(O)(Cc1cc(Cl)ncc1Cl)C1(Cl)CC1 (centres unmarked) [Example I-56] | 80 to 89
20 | OC(Cc1cccnc1Cl)(Cn1cncc1Cl)C1(Cl)CC1 (centres unmarked) [Example I-07] | 80 to 89
21 | Cc1ccc(CC(O)(Cn2cncc2C#N)C2(Cl)CC2)c(C)c1 (centres unmarked) [Example I-51] | 90 to 100
22 | N#CCc1cncn1CC(O)(Cc1ccccc1Cl)C1(Cl)CC1 (centres unmarked) [Example I-21] | 80 to 89
23 | N#Cc1cncn1CC(O)(Cc1ccc(Cl)cc1F)CC1CC1 (centres unmarked) [Example I-120] | 90 to 100
24 | N#Cc1cncn1CC(O)(Cc1ccccc1F)C1CCC1 (centres unmarked) [Example I-137] | 80 to 89
25 | N#Cc1cncn1CC(O)(Cc1cccc(F)c1F)C1CCC1 (centres unmarked) [Example I-148] | 90 to 100
26 | CC(C)C(O)(Cc1ccc(F)cc1F)Cn1cncc1C#N (centres unmarked) [Example I-128] | 90 to 100
27 | N#Cc1cncn1CC(O)(Cc1cccc(F)c1F)CC1CC1 (centres unmarked) [Example I-151] | 80 to 89
28 | N#Cc1cncn1CC(O)(Cc1ccccc1I)C1(Cl)CC1 (centres unmarked) [Example I-166] | 90 to 100
29 | N#Cc1cncn1CC(O)(Cc1ccnc(Br)c1Br)C1(Cl)CC1 (centres unmarked) [Example I-48] | 80 to 89
30 | OC(Cc1ccccc1C(F)(F)F)(Cn1cncc1Cl)C1(Cl)CC1 (centres unmarked) [Example I-89] | 80 to 89

Test system: Septoria tritici
Test: In vivo preventive test on Septoria tritici (leaf spot on wheat), Examples E, Q3 and R5
Conditions: Zymoseptoria tritici, 576 h, 500 ppm of active ingredient; wheat, preventive spray, evaluated 24 days after inoculation; read-out: efficacy

Row | Structure (SMILES) | pest or weed control at 500 ppm [%]
31 | O=Cc1cncn1CC(O)(Cc1ccccc1Cl)C1(Cl)CC1 (centres unmarked) [Example I-12] | 90 to 100
32 | COC(Cc1ccc(Cl)cc1F)(Cn1cncc1C#N)C1CC1 (centres unmarked) [Example I-121] | 90 to 100
33 | Cc1cccc(CC(O)(Cn2cncc2C#N)C2(Cl)CC2)c1 (centres unmarked) [Example I-59] | 90 to 100
34 | N#Cc1cncn1CC(O)(Cc1cc(Cl)ncc1Cl)C1(Cl)CC1 (centres unmarked) [Example I-56] | 90 to 100
35 | OC(Cc1cccnc1Cl)(Cn1cncc1Cl)C1(Cl)CC1 (centres unmarked) [Example I-07] | 90 to 100
36 | Cc1ccc(CC(O)(Cn2cncc2C#N)C2(Cl)CC2)c(C)c1 (centres unmarked) [Example I-51] | 90 to 100
37 | N#CCc1cncn1CC(O)(Cc1ccccc1Cl)C1(Cl)CC1 (centres unmarked) [Example I-21] | 70 to 79
38 | N#Cc1cncn1CC(O)(Cc1ccc(Cl)cc1F)CC1CC1 (centres unmarked) [Example I-120] | 70 to 79
39 | N#Cc1cncn1CC(O)(Cc1ccccc1F)C1CCC1 (centres unmarked) [Example I-137] | 90 to 100
40 | N#Cc1cncn1CC(O)(Cc1cccc(F)c1F)C1CCC1 (centres unmarked) [Example I-148] | 90 to 100
41 | CC(C)C(O)(Cc1ccc(F)cc1F)Cn1cncc1C#N (centres unmarked) [Example I-128] | 90 to 100
42 | N#Cc1cncn1CC(O)(Cc1cccc(F)c1F)CC1CC1 (centres unmarked) [Example I-151] | 90 to 100
43 | N#Cc1cncn1CC(O)(Cc1ccccc1I)C1(Cl)CC1 (centres unmarked) [Example I-166] | 70 to 79
44 | N#Cc1cncn1CC(O)(Cc1ccnc(Br)c1Br)C1(Cl)CC1 (centres unmarked) [Example I-48] | 90 to 100

Test system: not listed separately
Test: Measurement of LogP values by HPLC on reversed phase columns (EEC directive 79/831 Annex V.A8)
Assay type: physicochemical
Conditions: method [a]: LC-UV, acidic range, 0.1% formic acid in water and acetonitrile as eluent; Table 1
Experimental: Measurement of Log P values was performed as outlined above.

Row | Structure (SMILES) | chromatographic logP
45 | COC(Cc1ccc(Cl)cc1F)(Cn1cncc1C#N)C1CC1 (centres unmarked) [Example I-121] | 3.31
46 | N#Cc1cncn1CC(O)(Cc1cc(Cl)ncc1Cl)C1(Cl)CC1 (centres unmarked) [Example I-56] | 2.62
47 | OC(Cc1cccnc1Cl)(Cn1cncc1Cl)C1(Cl)CC1 (centres unmarked) [Example I-07] | 1.57
48 | N#CCc1cncn1CC(O)(Cc1ccccc1Cl)C1(Cl)CC1 (centres unmarked) [Example I-21] | 1.66
49 | N#Cc1cncn1CC(O)(Cc1ccccc1F)C1CCC1 (centres unmarked) [Example I-137] | 2.46
50 | N#Cc1cncn1CC(O)(Cc1cccc(F)c1F)C1CCC1 (centres unmarked) [Example I-148] | 2.57
51 | CC(C)C(O)(Cc1ccc(F)cc1F)Cn1cncc1C#N (centres unmarked) [Example I-128] | 2.52
52 | N#Cc1cncn1CC(O)(Cc1cccc(F)c1F)CC1CC1 (centres unmarked) [Example I-151] | 2.66
53 | N#Cc1cncn1CC(O)(Cc1ccccc1I)C1(Cl)CC1 (centres unmarked) [Example I-166] | 3.13
54 | OC(Cc1ccccc1C(F)(F)F)(Cn1cncc1Cl)C1(Cl)CC1 (centres unmarked) [Example I-89] | 2.62

Test system: Pyrenophora teres
Test: In vivo preventive test on Pyrenophora teres (net blotch on barley), Examples D, Q2 and R4
Conditions: Pyrenophora teres, 336 h, 500 ppm of active ingredient, preventive spray, evaluated 14 days after inoculation, read-out: efficacy

Row | Structure (SMILES) | pest or weed control at 500 ppm [%]
55 | O=Cc1cncn1CC(O)(Cc1ccccc1Cl)C1(Cl)CC1 (centres unmarked) [Example I-12] | 90 to 100
56 | COC(Cc1ccc(Cl)cc1F)(Cn1cncc1C#N)C1CC1 (centres unmarked) [Example I-121] | 70 to 79
57 | N#Cc1cncn1CC(O)(Cc1cc(Cl)ncc1Cl)C1(Cl)CC1 (centres unmarked) [Example I-56] | 70 to 79
58 | OC(Cc1cccnc1Cl)(Cn1cncc1Cl)C1(Cl)CC1 (centres unmarked) [Example I-07] | 70 to 79
59 | Cc1ccc(CC(O)(Cn2cncc2C#N)C2(Cl)CC2)c(C)c1 (centres unmarked) [Example I-51] | 90 to 100
60 | N#Cc1cncn1CC(O)(Cc1ccc(Cl)cc1F)CC1CC1 (centres unmarked) [Example I-120] | 70 to 79
61 | N#Cc1cncn1CC(O)(Cc1cccc(F)c1F)C1CCC1 (centres unmarked) [Example I-148] | 80 to 89
62 | N#Cc1cncn1CC(O)(Cc1cccc(F)c1F)CC1CC1 (centres unmarked) [Example I-151] | 70 to 79
63 | N#Cc1cncn1CC(O)(Cc1ccccc1I)C1(Cl)CC1 (centres unmarked) [Example I-166] | 80 to 89
64 | N#Cc1cncn1CC(O)(Cc1ccnc(Br)c1Br)C1(Cl)CC1 (centres unmarked) [Example I-48] | 70 to 79
65 | OC(Cc1ccccc1C(F)(F)F)(Cn1cncc1Cl)C1(Cl)CC1 (centres unmarked) [Example I-89] | 80 to 89

Test system: Botrytis cinerea
Test: In vivo preventive test on Botrytis cinerea (grey mould) on gherkin, Examples B, Q1 and R2
Conditions: Botrytis cinerea, 500 ppm of active ingredient, preventive spray, evaluated 4 to 5 days after inoculation, read-out: efficacy

Row | Structure (SMILES) | pest or weed control at 500 ppm [%]
66 | Cc1cccc(CC(O)(Cn2cncc2C#N)C2(Cl)CC2)c1 (centres unmarked) [Example I-59] | 90 to 100
67 | N#CCc1cncn1CC(O)(Cc1ccccc1Cl)C1(Cl)CC1 (centres unmarked) [Example I-21] | 90 to 100
68 | N#Cc1cncn1CC(O)(Cc1ccccc1F)C1CCC1 (centres unmarked) [Example I-137] | 70 to 79
69 | CC(C)C(O)(Cc1ccc(F)cc1F)Cn1cncc1C#N (centres unmarked) [Example I-128] | 90 to 100

Test system: Sphaerotheca fuliginea
Test: In vivo preventive test on Sphaerotheca fuliginea (powdery mildew on cucurbits), Examples F and R6
Conditions: Podosphaera fuliginea, 360 h; 500 ppm of active ingredient; gherkin, preventive spray, evaluated 15 days after inoculation; read-out: efficacy

Row | Structure (SMILES) | pest or weed control at 500 ppm [%]
70 | O=Cc1cncn1CC(O)(Cc1ccccc1Cl)C1(Cl)CC1 (centres unmarked) [Example I-12] | 90 to 100
71 | COC(Cc1ccc(Cl)cc1F)(Cn1cncc1C#N)C1CC1 (centres unmarked) [Example I-121] | 90 to 100
72 | Cc1cccc(CC(O)(Cn2cncc2C#N)C2(Cl)CC2)c1 (centres unmarked) [Example I-59] | 90 to 100
73 | N#Cc1cncn1CC(O)(Cc1cc(Cl)ncc1Cl)C1(Cl)CC1 (centres unmarked) [Example I-56] | 90 to 100
74 | OC(Cc1cccnc1Cl)(Cn1cncc1Cl)C1(Cl)CC1 (centres unmarked) [Example I-07] | 90 to 100
75 | Cc1ccc(CC(O)(Cn2cncc2C#N)C2(Cl)CC2)c(C)c1 (centres unmarked) [Example I-51] | 90 to 100
76 | N#CCc1cncn1CC(O)(Cc1ccccc1Cl)C1(Cl)CC1 (centres unmarked) [Example I-21] | 90 to 100
77 | N#Cc1cncn1CC(O)(Cc1ccc(Cl)cc1F)CC1CC1 (centres unmarked) [Example I-120] | 90 to 100
78 | N#Cc1cncn1CC(O)(Cc1ccccc1F)C1CCC1 (centres unmarked) [Example I-137] | 90 to 100
79 | CC(C)C(O)(Cc1ccc(F)cc1F)Cn1cncc1C#N (centres unmarked) [Example I-128] | 90 to 100
80 | N#Cc1cncn1CC(O)(Cc1cccc(F)c1F)CC1CC1 (centres unmarked) [Example I-151] | 90 to 100
81 | N#Cc1cncn1CC(O)(Cc1ccccc1I)C1(Cl)CC1 (centres unmarked) [Example I-166] | 90 to 100
82 | N#Cc1cncn1CC(O)(Cc1ccnc(Br)c1Br)C1(Cl)CC1 (centres unmarked) [Example I-48] | 90 to 100
83 | OC(Cc1ccccc1C(F)(F)F)(Cn1cncc1Cl)C1(Cl)CC1 (centres unmarked) [Example I-89] | 90 to 100
